{"source": "paper PMC4633474", "about": "“Kinetic properties and stability of glucose dehydrogenase from Bacillus amyloliquefaciens SB5 and its potential for cofactor regeneration” (AMB Express, 2015)", "target": "T1, GluDH-BS (Bacillus subtilis, UniProt P12310)", "T1 construct": "gene gdh; full length, plasmid pHGBS, overexpressed in B. subtilis 168 (strain BS), crude cell-free extract", "T1 sequence (P12310 whole entry)": "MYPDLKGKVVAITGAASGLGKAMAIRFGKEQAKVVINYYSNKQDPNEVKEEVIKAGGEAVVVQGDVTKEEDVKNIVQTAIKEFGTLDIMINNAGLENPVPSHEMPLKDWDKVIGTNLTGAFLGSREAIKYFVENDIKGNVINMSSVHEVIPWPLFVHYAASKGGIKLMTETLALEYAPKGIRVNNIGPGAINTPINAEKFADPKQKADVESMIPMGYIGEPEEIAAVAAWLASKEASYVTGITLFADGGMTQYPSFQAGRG", "test": "NADPH formation at […] nm, crude extract", "type": "biochemical", "conditions": "glucose, CPB buffer, 37 °C; turnover only"}
{"smiles": "NC(=O)c1ccc[n+]([C@@H]2O[C@H](COP(=O)(O)OP(=O)(O)OC[C@H]3O[C@@H](n4cnc5c(N)ncnc54)[C@H](OP(=O)(O)O)[C@@H]3O)[C@@H](O)[C@H]2O)c1", "note": "[NADP^+]", "values": [{"measurement": "NADPH formation at 340 nm, crude extract", "result": "crude GluDH-BS (closed circle) and GluDH-BA (open circle) when using NADP^+ as a cofactor"}]}
